Measured values as given in patent publication US11357232B2, “Methods of improving soil health, growth and vigor of perennial grass communities” (Edaphix, LLC, priority 2013, dated 2022).

Assays:
French marigold = details: in vivo; cited from earlier work
spotted knapweed = test: Plant community response at Anaconda Smelter Superfund site; assay type: in vivo; details: gradient of water soluble copper and zinc in soil
[1] = system: seed geranium (Pelargonium x hortorum); details: in combination with nitrogen, phosphorus, and potassium; cited from earlier work
invasive plant species = test: Hypothetical dose-response testing of invasive species on a rangeland site (Example 21); assay type: in vivo; details: for biomass reduction: zinc-sensitive invasive species
Experimental: In this example, a rangeland site has become colonized by three invasive species. From dose-response testing it can be determined that 2 of the invasive species can be controlled by boron fertilization while the third is tolerant of boron, but not zinc. Of the two boron-sensitive invasive plant species, one is intolerant to a soil solution level of 3 mg boron per liter, while the other is sensitive to 7 milligrams per liter.

dandelions = test: Plant community response at Anaconda Smelter Superfund site; assay type: in vivo; details: where moderate to high levels of water soluble copper and zinc are measured in the soil
native perennial grasses = details: in vivo
Excerpt: (§5) The prevalence of various invasive species including cheatgrass, dandelions, and perennial noxious weeds (forbs) was observed and correlated with soil copper contamination levels measured at various sites.

[2] = system: invasive species including cheatgrass, dandelions, and perennial noxious weeds; test: Plant community survey in area contaminated with copper from a copper smelter (Example 22); assay type: in vivo; details: soil copper contamination levels measured at various sites
Excerpt: as §5

[3] = system: perennial grass (several species); test: Field trial of boron fertilization in existing perennial grass communities near Belgrade, Mont.; assay type: in vivo; details: over 5 year period after a single application of boron fertilizer; increased from 42%
Experimental: (§1) Field trials were established in existing perennial grass communities near Belgrade, Mont., with high levels of cheatgrass and dandelion invasion into existing perennial grasses to examine use of boron (elemental symbol: B) fertilization for weed control. Minute amounts of boron, in doses as low as 5 mg B/L (soluble) or 2-3 lbs B (dry) active ingredient per acre, were applied to the plots.
(§2) Over the same period of time dandelion cover decreased from a mean of 59% to 15%, and cheatgrass cover decreased from a mean of 47% to 1%, while perennial grass cover increased from 42% to 71%.
(§3) Formulation D, Using the boron-containing compound Na2B4O7.10 H20, the 0.5 mg/L soil concentration applied in the field experiment described in Example 1 was attained by adding 2.55 grams per 100 square foot. The 50 mg/L soil concentration was attained by adding 255 grams per 100 square feet. These concentrations were applied either dry or by dissolving the boron-containing compound in water and then applied as a liquid to field plots.

[4] = system: dandelion (Taraxacum officinale); test: as above; assay type: in vivo; details: over 5 year period after a single application of boron fertilizer; decreased from a mean of 59%
Experimental: as §1, §2, §3

[5] = system: cheatgrass (Bromus tectorum); test: as above; assay type: in vivo
Experimental: as §1, §2, §3

[6] = system: bluebunch wheatgrass (Pseudoroegenaria spicata); details: in vivo
Experimental: (§6) In a greenhouse pot study Kentucky bluegrass, bluebunch wheatgrass, cheatgrass, dandelion and spotted knapweed were grown from seed in potting soil for a period of approximately 26 weeks. Plants were watered with tap water for the first 24 weeks and then 3 times with boron solutions during the final 2 weeks of the study. Boron concentrations used were 5, 10, 25 and 50 mg B/L in addition to a tap water treatment and a commercial plant fertilizer solution.

[7] = system: Kentucky bluegrass (Poa pratensis); test: Greenhouse pot study watered with boron solutions; assay type: in vivo; details: increasing boron concentrations
Excerpt: (§4) Greenhouse pot irrigation study, Bozeman, Mont. (FIG. 6).

[8] = system: dandelion (Taraxacum officinale); test: Greenhouse pot study watered with boron solutions; assay type: in vivo
Excerpt: as §4

[9] = system: cheatgrass (Bromus tectorum); test: Greenhouse pot study watered with boron solutions; assay type: in vivo; details: increasing boron concentrations
Excerpt: as §4

[10] = system: spotted knapweed (Centaurea maculosa); test: Greenhouse pot study watered with boron solutions; assay type: in vivo
Excerpt: as §4

cheatgrass seed [11] = test: Greenhouse petri dish cheatgrass seed germination experiment; assay type: in vivo, Bromus tectorum
Experimental: Greenhouse petri dish experiments were completed to evaluate the effect of minute concentrations of boron on cheatgrass seed germination. Treatment concentrations (in addition to a zero treatment control) ranged from 10 to 50 mg B/L dissolved in distilled water. […] A follow-up experiment, essentially repeating the previously described petri dish experiment, with inclusion of a treatment rate as low as 5 mg/L, was completed. It was observed that cheatgrass seeds germinated at the 5 mg/L concentration, with death of the seedlings occurring within 7 days of germination (data not shown).

cheatgrass seed [12] = test: Benchtop seed germination in covered petri dishes with boron solutions (Example 8); assay type: in vivo, Bromus tectorum; details: boron 5 to 50 mg/L; 20 seeds; ten days after treatment
Experimental: Germination percentage of cheatgrass, dandelion, spotted knapweed and Kentucky bluegrass seed was measured ten (10) days after treatment with solutions of increasing boron concentration (FIG. 8). Cheatgrass appeared most sensitive to boron solution resulting in essentially 100% death of 20 cheatgrass seeds in covered petri dishes, when treated with solutions with boron concentration ranging from 5 to 50 mg/L. Control treatment using tap water successful germination percentage exceeded 56%.

[13] = system: bluebunch wheatgrass (Pseudoroegenaria spicata); test: Greenhouse pot study watered with boron solutions; details: watered 3 times in final 2 weeks
Experimental: as §6

perennial grass = test: Rangeland site five-year study, surface liquid boron applications (Example 4); assay type: in vivo; details: treated area
[14] = system: cheatgrass (Bromus tectorum); test: Cheatgrass-affected rangeland site two-year study, surface liquid boron applications (Example 5); assay type: in vivo; details: treated rangeland site
Excerpt: At a cheatgrass-affected rangeland site plant cover over a two-year study period is shown in response to water soluble soil boron concentrations resulting from surface liquid boron applications. Perennial grass cover in the treated rangeland site was increased to between 60 and 70 percent cover while cheatgrass cover decreased and was less than 3% (FIG. 5A) while adjacent untreated rangeland had less perennial grass cover and more cheatgrass after 2 years. (Soil sampling of the 0-6 inch depth was performed annually over a five year period to determine the water soluble boron concentrations both in the treated and untreated areas (FIG. 5B). Transects were used to measure plant cover annually at sites co-located with soil sampling.

[15] = system: cheatgrass, dandelion, spotted knapweed and Kentucky bluegrass seed; test: Benchtop seed germination in covered petri dishes with boron solutions (Example 8); assay type: in vivo; details: boron concentrations reached 25 mg/L; ten days after treatment
Experimental: Germination percentage of cheatgrass, dandelion, spotted knapweed and Kentucky bluegrass seed was measured ten (10) days after treatment with solutions of increasing boron concentration (FIG. 8).

chlorophyllitic plants [16] = details: as little as; cited from earlier work
chlorophyllitic plants [17] = test: Photosynthetic disruption by glyphosate; assay type: in vivo
Experimental: Extensive research has documented that plants are often sensitive to relatively minute concentrations or exposures to unique synthetic compounds or combinations of naturally occurring elements, including micro-nutrients. For example, glyphosate (aka ROUNDUP®, a synthetic Monsanto product) is effective at causing photosynthetic disruption in chlorophyllitic plants at an application rate of as little as 0.75 pounds active ingredient per acre, which equates to only approximately 8 mg/square foot of application, equivalent to approximately 14 ppm application rate. The American Phytopathological Society (APS) reported that micronutrients are generally toxic when present in high amounts, although ‘high concentrations’ are not clearly defined, and little toxicity have been reported at exceptionally low micro-nutrient concentrations. This occurrence is known as micro-nutrient toxicity syndrome (MTS). […] In addition, plants can vary considerably from species to species in their susceptibility to nutrient toxicities. For example, Lee and others (1996) reported inducing seed geranium (Pelargonium x hortorum) micronutrient toxicity symptoms by applying nutrient solutions containing 0.5 mg/L B, Cu, or Zn, or as little as 0.25 mg/L Mo, in combination with nitrogen, phosphorus, and potassium. […]

humans = details: U.S. EPA, 2005 carcinogen assessment guidelines; cited from earlier work
[18] = increasing boron concentrations
[19] = lowest boron solution concentration used, 5 mg B/L, watered 3 times in final 2 weeks

Molecule: [Mn+2] [manganese]
- concentration inducing micro-nutrient toxicity (French marigold): 1 µg/mL

Molecule: [Zn] [zinc]
- occurrence of spotted knapweed (spotted knapweed): found growing in soils with low to high levels
- nutrient solution concentration inducing micronutrient toxicity symptoms [1]: 0.5 mg/L
- biomass reduction (invasive plant species; 0.4 mg zinc per liter): 38%
- biomass reduction (invasive plant species; 0.9 milligrams per liter): 89%
- occurrence of dandelions (dandelions): not found

Molecule: [Mo] [molybdenum]
- concentration inducing micro-nutrient toxicity (French marigold): 5 µg/mL

Molecule: [Cu] [copper]
- concentration inducing micro-nutrient toxicity (French marigold): 4 µg/mL
- occurrence of spotted knapweed (spotted knapweed): found growing in soils with low to high levels
- tolerance of native perennial grasses to soil copper (native perennial grasses): tolerate higher copper soil levels
- occurrence of dandelions (dandelions): not found
- occurrence of invasive species versus soil copper [2]: primarily observed at lower copper contamination sites

Molecule: boron
- concentration inducing micro-nutrient toxicity (French marigold): 0.5 µg/mL
- perennial grass cover [3]: 71%
- mean dandelion cover [4]: 15%
- emerging or mature cheatgrass plants in plots ([5]; following growing seasons, doses as low as 5 mg B/L or 2-3 lbs B per acre): near-total absence
- mean cheatgrass cover ([5]; over 5 year period after a single application of boron fertilizer, decreased from a mean of 47%): 1%
- plant health index (color and vigor) response [6]: little change in plant health
- plant health index (color and vigor) response [7]: declined in vigor
- plant health index (color and vigor) response [8, 18]: declined in vigor
- phytotoxic response [8, 19]: marked phytotoxicity
- plant health index (color and vigor) response [9]: declined in vigor
- plant health index (color and vigor) response [10, 18]: declined in vigor
- rate of decline in plant health compared with other species ([10]; increasing solution boron concentration): most rapid decline in plant health
- phytotoxic response [10, 19]: marked phytotoxicity
- cheatgrass seed germination (observation) (cheatgrass seed [11]; 5 mg/L, follow-up experiment): germinated
- death of seedlings, time after germination (cheatgrass seed [11]; 5 mg/L, follow-up experiment): ≤ 7 days
- cheatgrass seed germination (cheatgrass seed [11]; 10 to 50 mg B/L in distilled water, after 14 days): zero
- cheatgrass seed germination (cheatgrass seed [11]; boron solution 10 mg/L, 14 days post treatment (FIG. 2B)): 0%
- soil solution level to which invasive species is intolerant (invasive plant species; first boron-sensitive invasive species): 3 mg boron per liter
- soil solution level to which invasive species is sensitive (invasive plant species; second boron-sensitive invasive species): 7 milligrams per liter
- death of cheatgrass seeds (cheatgrass seed [12]): ~100%
- tolerated boron concentration [13]: ≥ 50 mg B/L
- perennial grass densities (perennial grass): increase over time
- cheatgrass cover [14]: less than 3%
- germination of any species [15]: Very little germination

Molecule: O=C(O)CNCP(=O)(O)O [glyphosate]
- application rate effective at causing photosynthetic disruption (chlorophyllitic plants [16]): 0.75 pounds active ingredient per acre
- effective application rate, equivalent per area (chlorophyllitic plants [17]; equates to 0.75 pounds active ingredient per acre): approximately 8 mg/square foot
- effective application rate, equivalent (chlorophyllitic plants [17]; equivalent to 0.75 pounds active ingredient per acre): approximately 14 ppm

Molecule: borate salts
- carcinogenicity classification (humans): not likely to be carcinogenic to humans
